Values after ≈ are worked out from the molar mass of the structure shown.
Columns and labels:
CCRFCEM (human T cells) = assay: Antitumor effect on human tumor cells (MTT assay), CCRFCEM; assay type: cell-based; settings: CCRF-CEM, same manner as Test Example 1
Protocol: (§1) The cells subcultured in a CO2 incubator were each suspended in an RPM1 medium or Dulbecco's modified MEM medium, supplemented with 10%(v/v) fetal serum so as to give a cell density of 5×10^4 cells/mi. To a 135 μl portion of the suspension was added each test compound shown in Table 1 followed by 3-day incubation in a CO2 incubator. After the incubation was completed, 50% inhibition concentration (IC50) was determined by the MTT assay (Igaku no Ayumi, 128, 733 (1984)).
(§2) The antitumor effects of the compounds of the present invention were evaluated in the same manner as in Test Example 1 except that various human tumor cells were employed. The HL60 cells, the CCRF-CCM cells and the QG5 cells are derived from human leukemia, human T cells and human lung cancer, respectively.

B16 cells (melanoma) = assay: Antitumor effect on mouse tumor cells (MTT assay), B16; assay type: cell-based; settings: 72 h, 3-day incubation
Protocol: (§3) The P388 and L1210 cells are derived from mouse leukemia. The MethA cells, the 3LL cells and the B16 cells are derived from solid cancer, Lewis lung cancer and melanoma, respectively.
as §1

[1] = tested on: HL60 cells (human leukemia); assay: Antitumor effect on human tumor cells (MTT assay), HL60; assay type: cell-based; settings: HL-60, same manner as Test Example 1
Protocol: as §1, §2

[2] = tested on: 3LL cells (Lewis lung cancer); assay: Antitumor effect on mouse tumor cells (MTT assay), 3LL; assay type: cell-based; settings: 72 h, 3-day incubation
Protocol: as §3, §1

[3] = tested on: P388 cells (mouse leukemia); assay: Antitumor effect on mouse tumor cells (MTT assay), P388; assay type: cell-based; settings: 72 h, 3-day incubation
Protocol: as §3, §1

[4] = tested on: L1210 cells (mouse leukemia); assay: Antitumor effect on mouse tumor cells (MTT assay), L1210; assay type: cell-based; settings: 72 h, 3-day incubation
Protocol: as §3, §1

[5] = Acute toxicity, intravenous administration to male BDF mice; assay type: in vivo, mouse; settings: 3 mice per group
Text: The compounds of the present invention were intravenously administered to male BDF mice in order to examine the acute toxicity (each group having 3 mice).

[6] = tested on: MethA cells (solid cancer); assay: Antitumor effect on mouse tumor cells (MTT assay), MethA; assay type: cell-based; settings: Meth-A, 72 h, 3-day incubation
Protocol: as §3, §1

OG56 (human lung cancer) = assay: Antitumor effect on human tumor cells (MTT assay), OG56; assay type: cell-based; settings: same manner as Test Example 1
Protocol: as §1, §2

ras gene product p21 = assay: Expression of ras gene product p21 in revertant cells (Western blotting); assay type: cell-based; settings: revertants isolated in Example 7, FIG. 2
Protocol: 2×10^6 portions of these cells were collected and each suspended in 1 ml of a buffer solution (100 mM NaCl, 20 mM Tris hydrochloride (pH 7.5), 5 mM MgCl2, 1% NonidetP-40 (polyoxyethylene(9)p-tert-octylphenol), 0.5% sodium deoxycholate, protease inhibitor) and then ground with a Potter homogenizer. After centrifuging at 3600 r.p.m. for 60 minutes, 10 μg portions of proteins were isolated from the supernatant by 12.5% polyacrylamide gel electrophoresis.
Then, the proteins in the gel were transferred into a nitrocellulose membrane and reacted with NCC-RAS-004, which was a monoclonal antibody for p21, at 4° C. for 24 hours to perform Western blotting. After reacting with rat Ig and ^125 I-Protein A, radioautography was performed.

[7] = tested on: revertant cells transplanted onto BALB/C nude mice; assay: Carcinogenic ability of revertant cells on nude mouse; assay type: in vivo; settings: revertants of Example 7, 3×10^5 cells
[8] = tested on: NIH3T3 cells transformed with the activated c-Ha-ras gene; assay: Acquisition of revertant cells from transformed NIH3T3 cells, microscopic observation; assay type: cell-based, mouse; settings: 40 μg/ml, 6 days
Protocol: (§4) NIH3T3 cells transformed with the activated c-Ha-ras gene and normal NIH3T3 cells were incubated for 6 days in the presence of 40 μg/ml of the compound obtained in Example 3 under the same conditions as in Example 6. The cells were microscopically observed in detail.

normal NIH3T3 cells [9] = assay: Growth of normal NIH3T3 cells; assay type: cell-based, mouse; settings: 40 μg/ml, 1st to 6th days, FIG. 1
Protocol: (§5) NIH3T3 cells transformed with the activated ras gene (Proc. Natl. Acad. Sci. USA, 81, 4771-4775 (1984)) and normal NIH3T3 cells were incubated in a Dulbecco-modified Eagle medium containing 5% bovine serum. The initial cell concentrations were adjusted to 1×10^4 cells/mi. The compound obtained in Example 3 was added to a concentration of 40 μg/ml and the cell numbers were counted with the lapse of time from the 1st to the 6th days.

[10] = tested on: NIH3T3 cells transformed with the activated ras gene; assay: Growth inhibition of NIH3T3 cells transformed with activated c-Ha-ras gene; assay type: cell-based, mouse; settings: 40 μg/ml, 1st to 6th days, FIG. 1
Protocol: as §5

normal NIH3T3 cells [11] = assay: Morphology of normal NIH3T3 cells, microscopic observation; assay type: cell-based, mouse; settings: 40 μg/ml, 6 days
Protocol: as §4

[12] = Proceedings of 50th General Meeting of Japan Society of Cancer, 1991; cited from earlier work
normal NIH3T3 cells [13] = settings: 500 μg/ml, JP-A-1-110627; cited from earlier work
[14] = tested on: NIH3T3 cells transformed with the activated ras gene; settings: JP-A-1-110627, cited from earlier work

Structure (SMILES) | IC50 (CCRFCEM (human T cells)) [µg/mL] | IC50 (B16 cells (melanoma)) [µg/mL] | IC50 [1] [µg/mL] | IC50 [2] [µg/mL] | IC50 [3] [µg/mL] | IC50 [4] [µg/mL] | Survival dose (doses causing no death) [5] [mg/kg] | IC50 [6] [µg/mL] | IC50 (OG56 (human lung cancer)) [µg/mL] | expression of activated p21 in revertants (ras gene product p21) | tumor formation by revertants on nude mice [7] | death of transformed NIH3T3 cells [8] | revertants among surviving transformed NIH3T3 cells (morphology) [8] | growth of normal NIH3T3 cells (normal NIH3T3 cells [9]) | growth inhibition of NIH3T3 cells transformed with the activated ras gene [10] | morphological change of normal NIH3T3 cells (normal NIH3T3 cells [11]) | antitumor activity [12] | growth inhibition of normal NIH3T3 cells (azatyrosine) (normal NIH3T3 cells [13]) | growth inhibition of NIH3T3 cells transformed with the activated ras gene (azatyrosine) ([14]; 500 μg/ml) | nature of cells surviving after treatment with azatyrosine [14]
O=C1C=CC[C@@H](C(=O)O)N1 [Compound of Ex. 1] | 90 (≈ 638 µM) | 90 (≈ 638 µM) | 90 (≈ 638 µM) | 100 (≈ 709 µM) | 200 (≈ 1420 µM) | 130 (≈ 921 µM) | 1000 | 100 (≈ 709 µM) | 180 (≈ 1280 µM) |  |  |  |  |  |  |  |  |  |  | 
O=C(O)[C@@H]1CC=CC(=S)N1 [Compound of Ex. 3] | 20 (≈ 127 µM) | 45 (≈ 286 µM) | 20 (≈ 127 µM) | 11 (≈ 70 µM) | 5 (≈ 31.8 µM) | 9 (≈ 57.3 µM) | 800 | 11 (≈ 70 µM) | 70 (≈ 445 µM) | the activated p21 was expressed in the revertants | scarcely induced tumor formation | partially died | revertants which were flat and had nuclei and nucleoli morphologically similar to the normal NIH3T3 cells | continued to grow | inhibited the growth | no morphological change |  |  |  | 
N=C1C=CCC(C(=O)O)N1 (stereo not drawn) [Compound of Ex. 4] |  |  |  |  |  |  | 600 |  |  |  |  |  |  |  |  |  |  |  |  | 
N=C1C=CC[C@@H](C(=O)O)N1 [SF2698] | 45 (≈ 321 µM) | 41 (≈ 293 µM) | 45 (≈ 321 µM) | 51 (≈ 364 µM) | 120 (≈ 856 µM) | 65 (≈ 464 µM) | 300 | 46 (≈ 328 µM) | 80 (≈ 571 µM) |  |  |  |  |  |  |  | has an antitumor activity |  |  | 
N[C@@H](Cc1ccc(O)cn1)C(=O)O [azatyrosine, L-β-(5-hydroxy-2-pyridyl)alanine] |  |  |  |  |  |  |  |  |  |  |  |  |  |  |  |  |  | never inhibited the growth | selectively inhibited the growth | revertant cells

Source: US5334723A, “2-piperidinecarboxylic acid derivative, oncogene suppressor and agent for obtaining revertants” (Meiji Seika Kaisha, Ltd., priority 1991, dated 1994)
